Source: ChEMBL document CHEMBL3046738, “Quinolactacide, a new quinolone insecticide from Penicillium citrinum Thom F 1539” (Biosci Biotechnol Biochem, 2005)

Legend:
[1] = Solubility of the compound in DMSO; type: physicochemical
Myzus persicae = test: Insecticidal activity against Myzus persicae (green peach aphid) infested two-leaf stage of cabbage plants assessed as mortality at 250 ppm applied as spray after 4 days relative to untreated control; type: functional; details: 96 h
[2] = Solubility of the compound in chloroform; type: physicochemical
[3] = Solubility of the compound in ethyl acetate; type: physicochemical
[4] = Solubility of the compound in methanol; type: physicochemical

With `O=C1c2c([nH]c3ccccc3c2=O)-c2cccn21` [QUINOLACTACIDE] the solubility [1] was “soluble”, the mortality at 250 ppm (Myzus persicae) was 88% and the solubility [2] was “Insoluble”. The solubility [3] was “Insoluble” and the solubility [4] was “Insoluble”.
